Results published in PubChem BioAssay (NCI).
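Five concentrations, 48 hours, 96-well plates. TGI is the concentration that stops growth completely.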

What was measured:
Test in all cases: NCI anticancer screen, dose series, 48 h
[1] = test system: SW-620 colon
[2] = test system: DU-145 prostate
[3] = test system: SK-MEL-5 melanoma
[4] = test system: KM12 colon
[5] = test system: HS 578T breast
[6] = test system: NCI/ADR-RES ovarian
[7] = test system: A549 NSCLC
[8] = test system: ACHN renal
[9] = test system: HCC-2998 colon
[10] = test system: NCI-H226 lung
[11] = test system: NCI-H460 lung
[12] = test system: NCI-H522 lung
[13] = test system: HOP-92 NSCLC
[14] = test system: MOLT-4 leukemia
[15] = test system: UO-31 renal
[16] = test system: HOP-62 NSCLC
[17] = test system: CAKI-1 renal
[18] = test system: MALME-3M melanoma
[19] = test system: HT29 colon
[20] = test system: SNB-75 CNS
[21] = test system: RPMI-8226 leukemia
[22] = test system: HCT-116 colon
[23] = test system: A498 renal
[24] = test system: RXF 393 renal
[25] = test system: UACC-62 melanoma
[26] = test system: SK-OV-3 ovarian
[27] = test system: SF-268 CNS
[28] = test system: CCRF-CEM leukemia
[29] = test system: IGROV1 ovarian
[30] = test system: M14 melanoma
[31] = test system: K-562 leukemia
[32] = test system: OVCAR-5 ovarian
[33] = test system: SR leukemia
[34] = test system: COLO 205 colon
[35] = test system: SF-539 CNS
[36] = test system: MDA-MB-231 breast
[37] = test system: MCF7 breast
[38] = test system: HL-60(TB) leukemia
[39] = test system: OVCAR-3 ovarian
[40] = test system: OVCAR-8 ovarian
[41] = test system: SNB-19 CNS
[42] = test system: UACC-257 melanoma
[43] = test system: U251 CNS
[44] = test system: BT-549 breast
[45] = test system: MDA-N
[46] = test system: LOX IMVI melanoma
[47] = test system: SK-MEL-28 melanoma
[48] = test system: 786-0 renal
[49] = test system: TK-10 renal
[50] = test system: EKVX NSCLC
[51] = test system: HCT-15 colon
[52] = test system: PC-3 prostate
[53] = test system: NCI-H23 lung
[54] = test system: MDA-MB-435
[55] = test system: SF-295 CNS
[56] = test system: OVCAR-4 ovarian
[57] = test system: T-47D breast
[58] = test system: SN12C renal

**Q.** `O=P(O)(O)C(NCC(O)CN1CCOCC1)P(=O)(O)O` (stereo unspecified) was tested. Which TGI [1] did it give?
**A.** The TGI was over 100 µM.

**Q.** And the TGI [2]?
**A.** The TGI was over 100 µM.

**Q.** What about the TGI [3] of the same compound?
**A.** The TGI was over 100 µM.

**Q.** What about the TGI [4] of the same compound?
**A.** The TGI was over 100 µM.

**Q.** And the TGI [5]?
**A.** Its TGI is over 100 µM.

**Q.** What about the TGI [6] of the same compound?
**A.** Its TGI is over 100 µM.

**Q.** What about the TGI [7] of the same compound?
**A.** The TGI was over 100 µM.

**Q.** What about the TGI [8] of the same compound?
**A.** Its TGI is over 100 µM.

**Q.** And the TGI [9]?
**A.** Its TGI is over 100 µM.

**Q.** And the TGI [10]?
**A.** Its TGI is over 100 µM.

**Q.** What about the TGI [11] of the same compound?
**A.** Its TGI is over 100 µM.

**Q.** And the TGI [12]?
**A.** The TGI was over 100 µM.

**Q.** What about the TGI [13] of the same compound?
**A.** The TGI was over 100 µM.

**Q.** And the TGI [14]?
**A.** Its TGI is over 100 µM.

**Q.** What about the TGI [15] of the same compound?
**A.** The TGI was over 100 µM.

**Q.** And the TGI [16]?
**A.** The TGI was over 100 µM.

**Q.** And the TGI [17]?
**A.** Its TGI is over 100 µM.

**Q.** What about the TGI [18] of the same compound?
**A.** Its TGI is over 100 µM.

**Q.** What about the TGI [19] of the same compound?
**A.** The TGI was over 100 µM.

**Q.** And the TGI [20]?
**A.** Its TGI is over 100 µM.

**Q.** What about the TGI [21] of the same compound?
**A.** The TGI was over 100 µM.

**Q.** What about the TGI [22] of the same compound?
**A.** The TGI was over 100 µM.

**Q.** What about the TGI [23] of the same compound?
**A.** Its TGI is over 100 µM.

**Q.** And the TGI [24]?
**A.** The TGI was over 100 µM.

**Q.** And the TGI [25]?
**A.** The TGI was over 100 µM.

**Q.** What about the TGI [26] of the same compound?
**A.** The TGI was over 100 µM.

**Q.** And the TGI [27]?
**A.** The TGI was over 100 µM.

**Q.** What about the TGI [28] of the same compound?
**A.** The TGI was over 100 µM.

**Q.** And the TGI [29]?
**A.** The TGI was over 100 µM.

**Q.** What about the TGI [30] of the same compound?
**A.** The TGI was over 100 µM.

**Q.** What about the TGI [31] of the same compound?
**A.** Its TGI is over 100 µM.

**Q.** And the TGI [32]?
**A.** The TGI was over 100 µM.

**Q.** And the TGI [33]?
**A.** Its TGI is over 100 µM.

**Q.** What about the TGI [34] of the same compound?
**A.** The TGI was over 100 µM.

**Q.** What about the TGI [35] of the same compound?
**A.** Its TGI is over 100 µM.

**Q.** And the TGI [36]?
**A.** The TGI was over 100 µM.

**Q.** What about the TGI [37] of the same compound?
**A.** Its TGI is over 100 µM.

**Q.** And the TGI [38]?
**A.** Its TGI is over 100 µM.

**Q.** And the TGI [39]?
**A.** Its TGI is over 100 µM.

**Q.** And the TGI [40]?
**A.** The TGI was over 100 µM.

**Q.** And the TGI [41]?
**A.** The TGI was over 100 µM.

**Q.** What about the TGI [42] of the same compound?
**A.** The TGI was over 100 µM.

**Q.** What about the TGI [43] of the same compound?
**A.** The TGI was over 100 µM.

**Q.** What about the TGI [44] of the same compound?
**A.** Its TGI is over 100 µM.

**Q.** What about the TGI [45] of the same compound?
**A.** The TGI was over 100 µM.

**Q.** What about the TGI [46] of the same compound?
**A.** The TGI was over 100 µM.

**Q.** What about the TGI [47] of the same compound?
**A.** The TGI was over 100 µM.

**Q.** What about the TGI [48] of the same compound?
**A.** Its TGI is over 100 µM.

**Q.** What about the TGI [49] of the same compound?
**A.** Its TGI is over 100 µM.

**Q.** What about the TGI [50] of the same compound?
**A.** Its TGI is over 100 µM.

**Q.** What about the TGI [51] of the same compound?
**A.** The TGI was over 100 µM.

**Q.** And the TGI [52]?
**A.** The TGI was over 100 µM.

**Q.** And the TGI [53]?
**A.** Its TGI is over 100 µM.

**Q.** And the TGI [54]?
**A.** The TGI was over 100 µM.

**Q.** And the TGI [55]?
**A.** The TGI was over 100 µM.

**Q.** For `Cc1[nH]c2nccn2c(=O)c1CCCl`, which TGI [1] is on record?
**A.** Its TGI is 50.8 µM.

**Q.** And the TGI [2]?
**A.** Its TGI is 66.7 µM.

**Q.** What about the TGI [3] of the same compound?
**A.** Its TGI is 31.3 µM.

**Q.** And the TGI [4]?
**A.** The TGI was 42.2 µM.

**Q.** What about the TGI [5] of the same compound?
**A.** The TGI was over 100 µM.

**Q.** And the TGI [6]?
**A.** Its TGI is 58.1 µM.

**Q.** And the TGI [56]?
**A.** Its TGI is 40 µM.

**Q.** And the TGI [7]?
**A.** The TGI was over 100 µM.

**Q.** And the TGI [8]?
**A.** The TGI was 55 µM.

**Q.** And the TGI [9]?
**A.** The TGI was 34.1 µM.

**Q.** And the TGI [10]?
**A.** Its TGI is over 100 µM.

**Q.** What about the TGI [11] of the same compound?
**A.** Its TGI is 49.5 µM.

**Q.** What about the TGI [12] of the same compound?
**A.** The TGI was 49.9 µM.

**Q.** And the TGI [13]?
**A.** The TGI was 66.1 µM.

**Q.** What about the TGI [14] of the same compound?
**A.** Its TGI is 52.9 µM.

**Q.** And the TGI [15]?
**A.** The TGI was 91.4 µM.

**Q.** And the TGI [16]?
**A.** The TGI was 60 µM.

**Q.** What about the TGI [57] of the same compound?
**A.** The TGI was over 100 µM.

**Q.** And the TGI [58]?
**A.** Its TGI is 45.4 µM.

**Q.** What about the TGI [18] of the same compound?
**A.** The TGI was 41.3 µM.

**Q.** What about the TGI [19] of the same compound?
**A.** Its TGI is over 100 µM.

**Q.** And the TGI [20]?
**A.** Its TGI is over 100 µM.

**Q.** And the TGI [21]?
**A.** Its TGI is 62.9 µM.

**Q.** And the TGI [22]?
**A.** The TGI was 32.3 µM.

**Q.** And the TGI [23]?
**A.** Its TGI is 61.8 µM.

**Q.** What about the TGI [24] of the same compound?
**A.** The TGI was 38.9 µM.

**Q.** And the TGI [25]?
**A.** The TGI was 53.7 µM.

**Q.** And the TGI [26]?
**A.** Its TGI is 63 µM.

**Q.** What about the TGI [27] of the same compound?
**A.** The TGI was over 100 µM.

**Q.** What about the TGI [28] of the same compound?
**A.** The TGI was 85.4 µM.

**Q.** And the TGI [29]?
**A.** The TGI was 61.8 µM.

**Q.** And the TGI [30]?
**A.** Its TGI is over 100 µM.

**Q.** What about the TGI [31] of the same compound?
**A.** The TGI was 93.5 µM.

**Q.** What about the TGI [32] of the same compound?
**A.** Its TGI is over 100 µM.

**Q.** What about the TGI [33] of the same compound?
**A.** Its TGI is 90.7 µM.

**Q.** What about the TGI [34] of the same compound?
**A.** The TGI was over 100 µM.

**Q.** What about the TGI [35] of the same compound?
**A.** Its TGI is 36.6 µM.

**Q.** And the TGI [36]?
**A.** The TGI was over 100 µM.

**Q.** And the TGI [37]?
**A.** The TGI was over 100 µM.

**Q.** And the TGI [38]?
**A.** The TGI was 57.2 µM.

**Q.** What about the TGI [39] of the same compound?
**A.** Its TGI is 62.1 µM.

**Q.** What about the TGI [40] of the same compound?
**A.** The TGI was 87.6 µM.

**Q.** And the TGI [41]?
**A.** The TGI was over 100 µM.

**Q.** What about the TGI [42] of the same compound?
**A.** The TGI was over 100 µM.

**Q.** What about the TGI [43] of the same compound?
**A.** Its TGI is 43.8 µM.

**Q.** What about the TGI [44] of the same compound?
**A.** Its TGI is 62.5 µM.

**Q.** What about the TGI [45] of the same compound?
**A.** The TGI was 46.6 µM.

**Q.** And the TGI [46]?
**A.** The TGI was 33.6 µM.

**Q.** And the TGI [47]?
**A.** The TGI was over 100 µM.

**Q.** And the TGI [48]?
**A.** The TGI was 64.6 µM.

**Q.** And the TGI [49]?
**A.** The TGI was 96.7 µM.

**Q.** What about the TGI [50] of the same compound?
**A.** The TGI was over 100 µM.

**Q.** And the TGI [51]?
**A.** The TGI was over 100 µM.

**Q.** And the TGI [52]?
**A.** The TGI was over 100 µM.

**Q.** What about the TGI [53] of the same compound?
**A.** The TGI was 41.6 µM.

**Q.** And the TGI [55]?
**A.** The TGI was over 100 µM.
